Laboratory results from patent US7291641B2, “Derivatives of heterocycles with 5 members, their preparation and their use as medicaments” (Societe de Conseils de Recherches et d'Applications …, priority 1999, dated 2007).
Structures can show the parent of a compound that is named as a salt.

Structure (SMILES) | melting point [°C]
CCCCCCC(NCc1ccccc1)c1nc(-c2cccc(Br)c2)c[nH]1 (racemic) (as salt: acetate) [Example 193, (R,S)-N-benzyl-1-[4-(3-bromophenyl)-1H-imidazol-2-yl]-1-heptanamine] | 115 to 116
CCCCCC(N)c1nc(-c2ccccc2)c[nH]1 (racemic) (as salt: hydrochloride) [Example 65, (R,S)-1-(4-phenyl-1H-imidazol-2-yl)hexylamine] | 146 to 148
CCCCCCC(N)c1nc(-c2cccc(OC)c2)c[nH]1 (racemic) (as salt: hydrochloride) [Example 69, (R,S)-1-[4-(3-methoxyphenyl)-1H-imidazol-2-yl]heptylamine] | 110 to 112
CCCCCCC(NC1CCC1)c1nc(-c2ccc(F)cc2)c[nH]1 (racemic) (as salt: hydrochloride) [Example 84, (R,S)-N-{1-[4-(4-fluorophenyl)-1H-imidazol-2-yl]heptyl}-cyclobutanamine] | 144 to 146
Cn1cc(CC(N)c2nc(-c3ccccc3)c[nH]2)c2ccccc21 (racemic) (as salt: hydrochloride) [Example 92, (R,S)-2-(1-methyl-1H-indol-3-yl)-1-(4-phenyl-1H-imidazol-2-yl)ethylamine] | 110 to 114
NC(Cc1c[nH]c2cc(Cl)ccc12)c1nc(-c2ccccc2)c[nH]1 (racemic) (as salt: hydrochloride) [Example 122, (R,S)-2-(6-chloro-1H-indol-3-yl)-1-(4-phenyl-1H-imidazol-2-yl)ethylamine] | 210 to 212
CCCCCCC(N)c1nc(-c2ccccc2)c[nH]1 (racemic) (as salt: hydrochloride) [Example 142, (R,S)-1-(4-phenyl-1H-imidazol-2-yl)heptylamine] | 131 to 134
CCCCC(N)c1nc(-c2ccc(-c3ccccc3)cc2)c[nH]1 (racemic) (as salt: hydrochloride) [Example 175, (R,S)-1-(4-[1,1′-biphenyl]-4-yl-1H-imidazol-2-yl)-1-pentanamine] | 197 to 200
CCCCC(N)c1nc(-c2ccccc2)c[nH]1 (racemic) (as salt: hydrochloride) [Example 181, (R,S)-1-(4-phenyl-1H-imidazol-2-yl)pentylamine] | 178 to 180
CCCCCCC(N)c1nc(-c2ccc(C)cc2)c[nH]1 (racemic) (as salt: hydrochloride) [Example 184, (R,S)-1-[4-(4-methylphenyl)-1H-imidazol-2-yl]-1-heptanamine] | 157 to 160
CCCCCCC(N)c1nc(-c2ccccc2OC)c[nH]1 (racemic) (as salt: hydrochloride) [Example 185, (R,S)-1-[4-(2-methoxyphenyl)-1H-imidazol-2-yl]heptylamine] | 238 to 240
CCCCCCC(N)c1nc(-c2ccc(-c3ccccc3)cc2)c[nH]1 (racemic) (as salt: hydrochloride) [Example 188, (R,S)-1-(4-[1,1′-biphenyl]-4-yl-1H-imidazol-2-yl)-heptanamine] | 182 to 184
CCCCCCC(N)c1nc(-c2ccc(OC)cc2)c[nH]1 (racemic) (as salt: hydrochloride) [Example 190, (R,S)-1-[4-(4-methoxyphenyl)-1H-imidazol-2-yl]heptylamine] | 231 to 232
CCCCCCC(N)c1nc(-c2cccc(Br)c2)c[nH]1 (racemic) (as salt: hydrochloride) [Example 191, (R,S)-1-[4-(3-bromophenyl)-1H-imidazol-2-yl]-1-heptanamine] | 230 to 231
CCCCCCC(NCc1ccccc1)c1nc(-c2ccc(C)cc2)c[nH]1 (racemic) (as salt: hydrochloride) [Example 200, (R,S)-N-benzyl-1-[4-(4-methylphenyl)-1H-imidazol-2-yl]-1-heptanamine] | 185 to 188
CCCCCCC(N)c1nc(-c2ccc(C#N)cc2)c[nH]1 (racemic) (as salt: hydrochloride) [Example 205, (R,S)-4-[2-(1-aminoheptyl)-1H-imidazol-4-yl]benzonitrile] | 218 to 220

More lines, now with the values ahead:

melting point [°C] | Structure (SMILES)
204 to 210 | CCN(CC)c1ccc(-c2c[nH]c([C@@H](NC3CCCCC3)C3CCCCC3)n2)cc1 (as salt: hydrochloride) [Example 292, 4-{2-[(S)-cyclohexyl(cyclohexylamino)methyl]-1H-imidazol-4-yl}-N,N-diethylaniline]
190 to 192 | Fc1ccc(-c2c[nH]c([C@@H](NCC3CCCCC3)C3CCCCC3)n2)cc1 (as salt: hydrochloride) [Example 295, (S)-1-cyclohexyl-N-(cyclohexylmethyl)-1-[4-(4-fluorophenyl)-1H-imidazol-2-yl]methanamine]
214.1 | FC(F)(F)c1ccc(-c2c[nH]c([C@@H](NC3CCCCC3)C3CCCCC3)n2)cc1 (as salt: hydrochloride) [Example 296, N-((S)-cyclohexyl{4-[4-(trifluoromethyl)phenyl]-1H-imidazol-2-yl}methyl)cyclohexanamine]
230.4 | Brc1cccc(-c2c[nH]c([C@@H](NC3CCCCC3)C3CCCCC3)n2)c1 (as salt: hydrochloride) [Example 297, N-[(S)-[4-(3-bromophenyl)-1H-imidazol-2-yl](cyclohexyl)methyl]-cyclohexanamine]
206.3 | Brc1cccc(-c2c[nH]c([C@@H](NCC3CCCCC3)C3CCCCC3)n2)c1 (as salt: hydrochloride) [Example 306, (S)-1-[4-(3-bromophenyl)-1H-imidazol-2-yl]-1-cyclohexyl-N-(cyclohexylmethyl)methanamine]
198 to 200 | FC(F)(F)c1cccc(-c2c[nH]c([C@@H](NCC3CCCCC3)C3CCCCC3)n2)c1 (as salt: hydrochloride) [Example 307, (S)-1-cyclohexyl-N-(cyclohexylmethyl)-1-{4-[3-(trifluoromethyl)-phenyl]-1H-imidazol-2-yl}methanamine]
148 to 149 | N[C@H](CC1CCCCC1)c1nc(-c2ccc(F)cc2)c[nH]1 (as salt: hydrochloride) [Example 308, (1R)-2-cyclohexyl-1-[4-(4-fluorophenyl)-1H-imidazol-2-yl]ethanamine]
216 to 217 | CCN(CC)c1ccc(-c2c[nH]c([C@@H](N)C3CCCCC3)n2)cc1 (as salt: hydrochloride) [Example 310, 4-{2-[(S)-amino(cyclohexyl)methyl]-1H-imidazol-4-yl}-N,N-diethylaniline]
238 to 241 | N[C@H](c1nc(-c2cccc(F)c2)c[nH]1)C1CCCCC1 (as salt: hydrochloride) [Example 311, (S)-1-cyclohexyl-1-[4-(3-fluorophenyl)-1H-imidazol-2-yl]methanamine]
180 to 186 | Fc1cccc(-c2c[nH]c([C@@H](NCC3CCCCC3)C3CCCCC3)n2)c1 (as salt: hydrochloride) [Example 312, (S)-1-cyclohexyl-N-(cyclohexylmethyl)-1-[4-(3-fluorophenyl)-1H-imidazol-2-yl]methanamine]
213.9 | Fc1cccc(-c2c[nH]c([C@@H](NC3CCCCC3)C3CCCCC3)n2)c1 (as salt: hydrochloride) [Example 314, N-{(S)-cyclohexyl[4-(3-fluorophenyl)-1H-imidazol-2-yl]methyl}cyclohexanamine]
222 to 228 | CC(C)(C)c1cc(-c2c[nH]c([C@@H](N)C3CCCCC3)n2)cc(C(C)(C)C)c1O (as salt: hydrochloride) [Example 316, 4-{2-[(S)-amino(cyclohexyl)methyl]-1H-imidazol-4-yl}-2,6-ditert-butylphenol]
165 to 166 | CCCCOC(=O)NCCc1nc(-c2ccc(N3CCCC3)cc2)c[nH]1 (as salt: hydrochloride) [Example 317, butyl 2-[4-(4-pyrrolidin-1-ylphenyl)-1H-imidazol-2-yl]ethylcarbamate]
188.2 | Fc1ccc(-c2c[nH]c([C@H](NCC3CCCCC3)C3CCCCC3)n2)cc1 (as salt: hydrochloride) [Example 318, (R)-1-cyclohexyl-N-(cyclohexylmethyl)-1-[4-(4-fluorophenyl)-1H-imidazol-2-yl]methanamine]
173 to 180 | N[C@H](Cc1ccccc1)c1nc(-c2ccc(F)cc2)c[nH]1 (as salt: hydrochloride) [Example 324, (1R)-1-[4-(4-fluorophenyl)-1H-imidazol-2-yl]-2-phenylethanamine]
210 to 213 | Fc1ccc(-c2c[nH]c([C@@H](Cc3ccccc3)NC3CCCCC3)n2)cc1 (as salt: hydrochloride) [Example 327, N-{(1R)-1-[4-(4-fluorophenyl)-1H-imidazol-2-yl]-2-phenylethyl}cyclohexanamine]
111.5 | CC(C)(C)c1cc(-c2c[nH]c(CCNC(=O)OCC3CCCCC3)n2)cc(C(C)(C)C)c1O (as salt: hydrochloride) [Example 329, cyclohexylmethyl 2-[4-(3,5-ditert-butyl-4-hydroxyphenyl)-1H-imidazol-2-yl]ethylcarbamate]
214 to 215 | O=C(NCCc1nc(-c2ccc(-c3ccc(Br)cc3)cc2)c[nH]1)OCC1CCC1 (as salt: hydrochloride) [Example 337, cyclobutylmethyl 2-[4-(4′-bromo-1,1′-biphenyl-4-yl)-1H-imidazol-2-yl]ethylcarbamate]
245 to 246 | NCCCc1nc(-c2ccc(F)cc2)c[nH]1 (as salt: hydrochloride) [Example 343, 3-[4-(4-fluorophenyl)-1H-imidazol-2-yl]propan-1-amine]
70 to 72 | CCCCCCC(NCC(C)C)c1nc(-c2ccccc2)c[nH]1 (racemic) (as salt: acetate) [Example 234, (R,S)-N-isobutyl-1-(4-phenyl-1H-imidazol-2-yl)-1-heptanamine]
204 to 206 | CCCCCCC(N)c1nc(-c2cc(C(C)(C)C)c(O)c(C(C)(C)C)c2)c[nH]1 (racemic) (as salt: hydrochloride) [Example 210, (R,S)-4-[2-(1-aminoheptyl)-1H-imidazol-4-yl]-2,6-di(tert-butyl)-phenol]
